The values that follow come from patent publication US11542254B2, “Methods and composition of 4-substituted benzoylpiperazine-1-substituted carbonyls as beta-catenin/B-cell lymphoma 9 inhibitors” (University of Utah Research Foundation, priority 2016, dated 2023).

The Ki is the equilibrium dissociation constant of an inhibitor or competing ligand from its target.

Structures can show the parent of a compound that is named as a salt.

Chain of β-catenin/BCL9 PPI (P35222 138-686): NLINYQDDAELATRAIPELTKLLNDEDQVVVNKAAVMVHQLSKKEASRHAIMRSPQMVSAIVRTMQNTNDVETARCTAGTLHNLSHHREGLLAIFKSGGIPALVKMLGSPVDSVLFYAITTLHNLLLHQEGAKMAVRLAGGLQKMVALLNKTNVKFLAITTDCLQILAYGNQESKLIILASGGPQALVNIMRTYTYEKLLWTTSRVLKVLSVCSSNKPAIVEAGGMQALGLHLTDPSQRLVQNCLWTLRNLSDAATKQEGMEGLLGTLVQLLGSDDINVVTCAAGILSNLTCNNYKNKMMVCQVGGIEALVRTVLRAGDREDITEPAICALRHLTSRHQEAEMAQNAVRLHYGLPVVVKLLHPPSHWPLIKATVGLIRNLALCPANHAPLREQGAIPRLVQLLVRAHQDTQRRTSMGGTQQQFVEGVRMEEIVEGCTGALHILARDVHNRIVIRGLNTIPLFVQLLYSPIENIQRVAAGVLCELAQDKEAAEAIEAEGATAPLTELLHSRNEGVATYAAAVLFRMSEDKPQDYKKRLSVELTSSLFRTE

The target of one experiment is β-catenin/BCL9 PPI (Homo sapiens (Human), UniProt P35222). Description: AlphaScreen competitive inhibition assay, wild-type β-catenin/BCL9 PPI. Format: binding. The settings on record: 500 μM, AlphaScreen. As to the method:
Cells were cultured in LB medium with 30 μg/mL kanamycin until the OD600 was approximately 0.8, and then protein expression was induced with 400 μM of IPTG at 20° C. overnight. Cells were lysed by sonication. […] Native non-denaturing gel electrophoresis was performed to confirm the homogeneity of the purified proteins. Thermal-shift assay was performed on an iCycler iQ Real Time Detection System (Bio-Rad) to monitor protein stability and detect protein aggregation. Protein unfolding was evaluated through measuring the fluorescence changes of fluorescent dye Sypro Orange when interacting with wild-type or mutant β-catenin proteins. A temperature increment of 1°/min was applied. […] All spectra were recorded at room temperature, and the baseline control containing all of the substances except protein. Sample were prepared at a concentration around 1-5 μM in a buffer of 10 mM potassium phosphate and 100 mM potassium fluoride at pH 7.0 to ensure that the transmission of light through the sample was not restricted. […] Proteins were aliquoted and stored at −80° C.
25. Alphascreen Competitive Inhibition Assays Using Wild-Type and Mutant β-Catenin Proteins
In general terms: Bead proximity is the source of the signal in Alpha formats.
Regarding `Cl.Cl.NCCc1cc(F)cc(C(=O)N2CCN(C(=O)c3cnc(O[C@H]4CCNC4)c(-c4ccc(F)cc4)c3)CC2)c1` [Compound 4, (S)-(4-(3-(2-Aminoethyl)-5-fluorobenzoyl)piperazin-1-yl)(5-(4-fluorophenyl)-6-(pyrrolidin-3-yloxy)pyridin-3-yl)methanone hydrochloride], the “inhibition of β-catenin/BCL9 PPI at the highest concentration tested” value is reported as “no obvious inhibition”.

The experiment is the same for the next values; noted with them: wild-type β-catenin/BCL9 PPI, AlphaScreen competitive inhibition, mean ± SD (n=3).
`NCCOc1ccc(C(N)=O)cc1-c1ccc(F)cc1` [Compound 1, 2-((5-carbamoyl-4′-fluoro-[1,1′-biphenyl]-2-yl)oxy)ethan-1-aminium chloride] displayed a Ki of 130 ± 6.9 µM. Still for that read-out and setting: then `Cl.Cl.O=C(c1cc(F)cc(N2CCNCC2)c1)N1CCN(C(=O)c2cnc(O[C@H]3CCNC3)c(-c3ccc(F)cc3)c2)CC1` [Compound 3, (S)-(4-(3-Fluoro-5-(piperazin-1-yl)benzoyl)piperazin-1-yl)(5-(4-fluorophenyl)-6-(pyrrolidin-3-yloxy)pyridin-3-yl)methanone hydrochloride], with 82 ± 12 µM; and `Cl.Cl.NCCc1cc(F)cc(C(=O)N2CCN(C(=O)c3cnc(O[C@H]4CCNC4)c(-c4ccc(F)cc4)c3)CC2)c1` [Compound 4, (S)-(4-(3-(2-Aminoethyl)-5-fluorobenzoyl)piperazin-1-yl)(5-(4-fluorophenyl)-6-(pyrrolidin-3-yloxy)pyridin-3-yl)methanone hydrochloride], with above 500 µM; and `NCCc1cc(F)cc(C(=O)N2CCN(C(=O)c3ccc(O[C@H]4CCNC4)c(-c4ccc(F)cc4)c3)CC2)c1` [Compound 5, (S)-(4-(3-(2-Aminoethyl)-5-fluorobenzoyl)piperazin-1-yl)(4′-fluoro-6-(pyrrolidin-3-yloxy)-[1,1′-biphenyl]-3-yl)methanone hydrochloride], with 67 ± 13 µM. Still for that read-out and setting: the value for `O=C(c1cc(F)cc(O[C@H]2CCNC2)c1)N1CCN(C(=O)c2ccc(O[C@H]3CCNC3)c(-c3ccc(F)cc3)c2)CC1` [Compound 6, (4-(3-Fluoro-5-(((S)-pyrrolidin-3-yl)oxy)benzoyl)piperazin-1-yl) (4′-fluoro-6-(((S)-pyrrolidin-3-yl)oxy)-[1,1′-biphenyl]-3-yl) methanone hydrochloride] was 48 ± 11 µM; that for `O=C(c1cc(F)cc(O[C@@H]2CCNC2)c1)N1CCN(C(=O)c2ccc(O[C@H]3CCNC3)c(-c3ccc(F)cc3)c2)CC1` [Compound 7, (4-(3-Fluoro-5-(((R)-pyrrolidin-3-yl)oxy)benzoyl)piperazin-1-yl) (4′-fluoro-6-(((S)-pyrrolidin-3-yl)oxy)-[1,1′-biphenyl]-3-yl) methanone hydrochloride] was 35 ± 9.6 µM; that for `O=C(c1cc(F)cc(C2CCNCC2)c1)N1CCN(C(=O)c2ccc(O[C@H]3CCNC3)c(-c3ccc(F)cc3)c2)CC1` [Compound 8, (S)-(4-(3-Fluoro-5-(piperidin-4-yl)benzoyl)piperazin-1-yl)(4′-fluoro-6-(pyrrolidin-3-yloxy)-[1,1′-biphenyl]-3-yl)methanone hydrochloride] was 20 ± 2.3 µM. On the same count and under the same terms, then `Cl.Cl.O=C(c1cc(F)cc(N2CCNCC2)c1)N1CCN(C(=O)c2ccc(O[C@H]3CCNC3)c(-c3ccc(F)c(F)c3)c2)CC1` [Compound 9, (S)-(4-(3′,4′-Difluoro-6-(pyrrolidin-3-yloxy)-[1,1′-biphenyl]-3-carbonyl)piperazin-1-yl)(3-fluoro-5-(piperazin-1-yl)phenyl) methanone hydrochloride], with 57 ± 33 µM. For `O=C(c1cc(F)cc(N2CCNCC2)c1)N1CCN(C(=O)c2ccc(O[C@H]3CCNC3)c(C3CCCC3)c2)CC1` [Compound 11, (S)-(4-(3-Cyclopentyl-4-(pyrrolidin-3-yloxy)benzoyl)piperazin-1-yl)(3-fluoro-5-(piperazin-1-yl)phenyl)methanone hydrochloride], the affinity corresponds to a Ki of 37 ± 8 µM.

`O=C(c1cc(F)cc(N2CCNCC2)c1)N1CCN(C(=O)c2ccc(O[C@H]3CCNC3)c(C3CCC(C(F)(F)F)CC3)c2)CC1` (stereo partly drawn) [Compound 13, (S)-(4-(3-Fluoro-5-(piperazin-1-yl)benzoyl)piperazin-1-yl)(4-(pyrrolidin-3-yloxy)-3-(4-(trifluoromethyl)cyclohexyl)phenyl)methanone hydrochloride] gave a Ki of 170 ± 7.5 µM. Same read-out and setting: the value for `CC1(C)CCC(c2cc(C(=O)N3CCN(C(=O)c4cc(F)cc(N5CCNCC5)c4)CC3)ccc2O[C@H]2CCNC2)CC1` [Compound 15, (S)-(4-(3-(4,4-Dimethylcyclohexyl)-4-(pyrrolidin-3-yloxy)benzoyl)piperazin-1-yl) (3-fluoro-5-(piperazin-1-yl)phenyl) methanone hydrochloride] was 45 ± 6.7 µM; that for `O=C(c1cc(F)cc(N2CCNCC2)c1)N1CCN(C(=O)c2ccc(O[C@H]3CCNC3)c(C3CCC(F)(F)CC3)c2)CC1` [Compound 16, (S)-(4-(3-(4,4-Difluorocyclohexyl)-4-(pyrrolidin-3-yloxy)benzoyl)piperazin-1-yl)(3-fluoro-5-(piperazin-1-yl)phenyl)methanone hydrochloride] was 53 ± 22 µM.

Take `Cc1cc(C(=O)N2CCN(C(=O)c3cc(F)cc(N4CCNCC4)c3)CC2)ccc1O[C@H]1CCNC1` [Compound 17, (S)-(4-(3-Fluoro-5-(piperazin-1-yl)benzoyl)piperazin-1-yl)(3-methyl-4-(pyrrolidin-3-yloxy)phenyl) methanone hydrochloride]: the inhibition constant (Ki) worked out at 490 ± 150 µM. The same measure, in the same setting: then `O=C(c1cc(Cl)cc(N2CCNCC2)c1)N1CCN(C(=O)c2ccc(O[C@H]3CCNC3)c(C3CCCCC3)c2)CC1` [Compound 18, (S)-(4-(3-Chloro-5-(piperazin-l-yl)benzoyl)piperazin-1-yl)(3-cyclohexyl-4-(pyrrolidin-3-yloxy)phenyl)methanone hydrochloride], with 76 ± 9.9 µM; and `Cc1cc(C(=O)N2CCN(C(=O)c3ccc(O[C@H]4CCNC4)c(C4CCCCC4)c3)CC2)cc(N2CCNCC2)c1` [Compound 19, (S)-(4-(3-Cyclohexyl-4-(pyrrolidin-3-yloxy)benzoyl)piperazin-1-yl) (3-methyl-5-(piperazin-1-yl)phenyl)methanone hydrochloride], with 25 ± 1.7 µM. Same read-out and setting: the value for `O=C(c1cc(N2CCNCC2)cc(C(F)(F)F)c1)N1CCN(C(=O)c2ccc(O[C@H]3CCNC3)c(C3CCCCC3)c2)CC1` [Compound 20, (S)-(4-(3-Cyclohexyl-4-(pyrrolidin-3-yloxy)benzoyl)piperazin-1-yl) (3-(piperazin-1-yl)-5-(trifluoromethyl)phenyl) methanone hydrochloride] was 69 ± 8.7 µM; that for `O=C(c1cc(Br)cc(N2CCNCC2)c1)N1CCN(C(=O)c2ccc(O[C@H]3CCNC3)c(C3CCCCC3)c2)CC1` [Compound 21, (S)-(4-(3-Bromo-5-(piperazin-1-yl)benzoyl)piperazin-1-yl)(3-cyclohexyl-4-(pyrrolidin-3-yloxy)phenyl)methanone hydrochloride] was 55 ± 2.7 µM; that for `C[C@H]1CN(C(=O)c2cc(F)cc(N3CCNCC3)c2)CCN1C(=O)c1ccc(O[C@H]2CCNC2)c(-c2ccc(F)cc2)c1` [Compound 62, 4-(3-Fluoro-5-((S)-4-(4′-fluoro-6-(((S)-pyrrolidin-1-ium-3-yl)oxy)-[1,1′-biphenyl]-3-carbonyl)-3-methylpiperazine-1-carbonyl)phenyl)piperazin-1-ium chloride] was 110 ± 50 µM.

As to `CC[C@H]1CN(C(=O)c2cc(F)cc(N3CCNCC3)c2)CCN1C(=O)c1ccc(O[C@H]2CCNC2)c(-c2ccc(F)cc2)c1` [Compound 63, 4-(3-((S)-3-Ethyl-4-(4′-fluoro-6-(((S)-pyrrolidin-1-ium-3-yl)oxy)-[1,1′-biphenyl]-3-carbonyl)piperazine-1-carbonyl)-5-fluorophenyl)piperazin-1-ium chloride], the Ki was found to be 10 ± 10 µM. On the same count and under the same terms, then `CC(C)[C@H]1CN(C(=O)c2cc(F)cc(N3CCNCC3)c2)CCN1C(=O)c1ccc(O[C@H]2CCNC2)c(-c2ccc(F)cc2)c1` [Compound 64, 4-(3-Fluoro-5-((5)-4-(4′-fluoro-6-(((S)-pyrrolidin-1-ium-3-yl)oxy)-[1,1′-biphenyl]-3-carbonyl)-3-isopropylpiperazine-1-carbonyl)phenyl)piperazin-1-ium chloride], with 45 µM. On the same count and under the same terms, then `CC(C)C[C@H]1CN(C(=O)c2cc(F)cc(N3CCNCC3)c2)CCN1C(=O)c1ccc(O[C@H]2CCNC2)c(-c2ccc(F)cc2)c1` [Compound 68, 4-(3-Fluoro-5-((5)-4-(4′-fluoro-6-(((S)-pyrrolidin-1-ium-3-yl)oxy)-[1,1′-biphenyl]-3-carbonyl)-3-isobutylpiperazine-1-carbonyl)phenyl)piperazin-1-ium chloride], with 22 µM; and `O=C(c1cc(F)cc(N2CCNCC2=O)c1)N1CCN(C(=O)c2ccc(O[C@H]3CCNC3)c(C3CCCCC3)c2)CC1` [Compound 75, (S)-1-(3-(4-(3-Cyclohexyl-4-(pyrrolidin-3-yloxy)benzoyl)piperazine-1-carbonyl)-5-fluorophenyl)piperazin-2-one hydrochloride], with 39 ± 7 µM. Still for that read-out and setting: then `O=C(c1cc(F)cc(N2CCNCC2=O)c1)N1CCN(C(=O)c2ccc(O[C@H]3CCNC3)c(C3CCC(C(F)(F)F)CC3)c2)CC1` (stereo partly drawn) [Compound 76, (S)-1-(3-Fluoro-5-(4-(4-(pyrrolidin-3-yloxy)-3-(4-(trifluoromethyl)cyclohexyl)benzoyl)piperazine-1-carbonyl)phenyl)piperazin-2-one hydrochloride], with 14 ± 3.6 µM.

Staying with this experiment, now noted: wild-type β-catenin/BCL9 PPI, compared with compound 2.
As to `Cl.Cl.O=C(c1cc(F)cc(N2CCNCC2)c1)N1CCN(C(=O)c2cnc(O[C@H]3CCNC3)c(-c3ccc(F)cc3)c2)CC1` [Compound 3, (S)-(4-(3-Fluoro-5-(piperazin-1-yl)benzoyl)piperazin-1-yl)(5-(4-fluorophenyl)-6-(pyrrolidin-3-yloxy)pyridin-3-yl)methanone hydrochloride], the “AlphaScreen Ki relative to compound 2 (higher / worse)” value is 4 fold. Same read-out and setting: then `Cl.Cl.O=C(c1cc(F)cc(N2CCNCC2)c1)N1CCN(C(=O)c2ccc(O[C@H]3CCNC3)c(-c3ccc(F)c(F)c3)c2)CC1` [Compound 9, (S)-(4-(3′,4′-Difluoro-6-(pyrrolidin-3-yloxy)-[1,1′-biphenyl]-3-carbonyl)piperazin-1-yl)(3-fluoro-5-(piperazin-1-yl)phenyl) methanone hydrochloride], with “approximately 3 fold”.
